Test results published in PubChem BioAssay (NCI).
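Assay format: 96-well plates, 48-hour exposure. GI50 = concentration required for 50% inhibition of growth. TGI: total growth inhibition.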

Assays:
Test in all cases: NCI tumour cell line growth inhibition, 48 h
786-0 renal = system: 786-0 renal
K-562 leukemia = system: K-562 leukemia
HCT-15 colon = system: HCT-15 colon
T-47D breast = system: T-47D breast
OVCAR-4 ovarian = system: OVCAR-4 ovarian
NCI-H23 lung = system: NCI-H23 lung
KM12 colon = system: KM12 colon
SW-620 colon = system: SW-620 colon
SNB-75 CNS = system: SNB-75 CNS
UO-31 renal = system: UO-31 renal

COc1ccc(-n2cc(-c3cc(OC)c(OC)c(OC)c3)[nH]c2=S)cc1Cl
GI50 (786-0 renal): 23.4 µM
TGI (786-0 renal): 54.5 µM
GI50 (K-562 leukemia): > 100 µM
TGI (K-562 leukemia): > 100 µM
GI50 (HCT-15 colon): > 100 µM
TGI (HCT-15 colon): > 100 µM
GI50 (T-47D breast): 29 µM
TGI (T-47D breast): > 100 µM
GI50 (OVCAR-4 ovarian): 27.2 µM
TGI (OVCAR-4 ovarian): > 100 µM
GI50 (NCI-H23 lung): 46.4 µM
TGI (NCI-H23 lung): > 100 µM
GI50 (KM12 colon): > 100 µM
TGI (KM12 colon): > 100 µM
GI50 (SW-620 colon): > 100 µM
TGI (SW-620 colon): > 100 µM
GI50 (SNB-75 CNS): 18.6 µM
TGI (SNB-75 CNS): 48.7 µM
GI50 (UO-31 renal): 38.6 µM
TGI (UO-31 renal): > 100 µM

O=C1NC(=O)[C@@H](c2c[nH]c3ccccc23)[C@@H]1c1c[nH]c2ccccc12
GI50 (786-0 renal): > 25 µM
TGI (786-0 renal): > 25 µM
GI50 (K-562 leukemia): > 25 µM
TGI (K-562 leukemia): > 25 µM
GI50 (HCT-15 colon): > 25 µM
TGI (HCT-15 colon): > 25 µM
GI50 (T-47D breast): > 25 µM
TGI (T-47D breast): > 25 µM
GI50 (OVCAR-4 ovarian): > 25 µM
TGI (OVCAR-4 ovarian): > 25 µM
GI50 (NCI-H23 lung): > 25 µM
TGI (NCI-H23 lung): > 25 µM
GI50 (KM12 colon): > 25 µM
TGI (KM12 colon): > 25 µM
GI50 (SW-620 colon): > 25 µM
TGI (SW-620 colon): > 25 µM
GI50 (SNB-75 CNS): > 25 µM
TGI (SNB-75 CNS): > 25 µM
GI50 (UO-31 renal): > 16.4 µM
TGI (UO-31 renal): > 25 µM

CN1CCN(c2ccc3nc(-c4[nH]ncc4Nc4ncnc5c4OCCCN5)[nH]c3c2)CC1
GI50 (786-0 renal): < 0.0119 µM
TGI (786-0 renal): 0.0944 µM
GI50 (K-562 leukemia): < 0.01 µM
TGI (K-562 leukemia): 29.8 µM
GI50 (HCT-15 colon): 0.0259 µM
TGI (HCT-15 colon): 0.63 µM
GI50 (T-47D breast): 0.0129 µM
TGI (T-47D breast): 0.155 µM
GI50 (OVCAR-4 ovarian): 0.0162 µM
TGI (OVCAR-4 ovarian): 0.104 µM
GI50 (NCI-H23 lung): < 0.0109 µM
TGI (NCI-H23 lung): 0.0726 µM
GI50 (KM12 colon): < 0.0105 µM
TGI (KM12 colon): 0.109 µM
GI50 (SW-620 colon): < 0.01 µM
TGI (SW-620 colon): 0.112 µM
GI50 (SNB-75 CNS): < 0.01 µM
TGI (SNB-75 CNS): 0.0177 µM
GI50 (UO-31 renal): 0.0179 µM
TGI (UO-31 renal): 0.0578 µM

Nc1nccc2c1ccn2-c1cccc(NC(=O)c2ccc(N3CCOCC3)c(C(F)(F)F)c2)c1
GI50 (786-0 renal): 0.905 µM
TGI (786-0 renal): 2.58 µM
GI50 (K-562 leukemia): 0.233 µM
TGI (K-562 leukemia): > 39.4 µM
GI50 (HCT-15 colon): 0.443 µM
TGI (HCT-15 colon): > 22.7 µM
GI50 (T-47D breast): 1.98 µM
TGI (T-47D breast): 29.9 µM
GI50 (OVCAR-4 ovarian): 1.77 µM
TGI (OVCAR-4 ovarian): > 36.1 µM
GI50 (NCI-H23 lung): 1.16 µM
TGI (NCI-H23 lung): 14.7 µM
GI50 (KM12 colon): 0.313 µM
TGI (KM12 colon): 2.73 µM
GI50 (SW-620 colon): 0.49 µM
TGI (SW-620 colon): > 50 µM
GI50 (SNB-75 CNS): 0.307 µM
TGI (SNB-75 CNS): 2.25 µM
GI50 (UO-31 renal): 1.2 µM
TGI (UO-31 renal): 14 µM

CCCC(C)c1c(Cl)nc(Cl)nc1Cl (stereo not drawn)
TGI (786-0 renal): 12.7 µM
TGI (K-562 leukemia): > 100 µM
TGI (HCT-15 colon): 64.4 µM
TGI (T-47D breast): 29 µM
TGI (OVCAR-4 ovarian): 44.7 µM
TGI (NCI-H23 lung): 18 µM
TGI (KM12 colon): 10.2 µM
TGI (SW-620 colon): > 100 µM
TGI (SNB-75 CNS): 27.5 µM
TGI (UO-31 renal): 34.7 µM

O=C1CCSC(=S)N1c1ccc(Br)c(Cl)c1
TGI (786-0 renal): 62 µM
TGI (K-562 leukemia): > 100 µM
TGI (HCT-15 colon): 40.2 µM
TGI (T-47D breast): 39.5 µM
TGI (OVCAR-4 ovarian): 50.3 µM
TGI (NCI-H23 lung): > 100 µM
TGI (KM12 colon): 85.9 µM
TGI (SW-620 colon): 91.6 µM
TGI (SNB-75 CNS): 52.6 µM
TGI (UO-31 renal): 82 µM

COc1cnc2c(c1)C(=O)c1c-2n(CCCNCCN2CCOCC2)c(=O)c2cc([N+](=O)[O-])ccc12
GI50 (786-0 renal): 0.224 µM
TGI (786-0 renal): 0.765 µM
GI50 (K-562 leukemia): 0.226 µM
TGI (K-562 leukemia): 2.59 µM
GI50 (HCT-15 colon): 0.297 µM
TGI (HCT-15 colon): 2.58 µM
GI50 (T-47D breast): 0.11 µM
TGI (T-47D breast): 18.1 µM
GI50 (OVCAR-4 ovarian): 0.334 µM
TGI (OVCAR-4 ovarian): 3.44 µM
GI50 (NCI-H23 lung): 0.152 µM
TGI (NCI-H23 lung): 1.61 µM
GI50 (KM12 colon): 0.399 µM
TGI (KM12 colon): 3.57 µM
GI50 (SW-620 colon): 0.128 µM
TGI (SW-620 colon): 8.68 µM
GI50 (SNB-75 CNS): 0.265 µM
TGI (SNB-75 CNS): 10.7 µM
GI50 (UO-31 renal): 0.0523 µM

COc1ccc(-c2nnc(SCC(=O)Nc3ccc(C(=O)/C=C/c4cc(OC)c(OC)c(OC)c4)cc3)n2-c2ccccc2)cc1OC
GI50 (786-0 renal): 3.53 µM
TGI (786-0 renal): > 10 µM
GI50 (K-562 leukemia): 4.92 µM
TGI (K-562 leukemia): > 10 µM
GI50 (HCT-15 colon): 2.01 µM
TGI (HCT-15 colon): > 10 µM
GI50 (T-47D breast): 4.74 µM
TGI (T-47D breast): > 10 µM
GI50 (OVCAR-4 ovarian): > 10 µM
TGI (OVCAR-4 ovarian): > 10 µM
GI50 (NCI-H23 lung): 8.27 µM
TGI (NCI-H23 lung): > 10 µM
GI50 (KM12 colon): 2.38 µM
TGI (KM12 colon): > 10 µM
GI50 (SW-620 colon): 2.45 µM
TGI (SW-620 colon): > 10 µM
GI50 (SNB-75 CNS): > 10 µM
TGI (SNB-75 CNS): > 10 µM
GI50 (UO-31 renal): > 10 µM
TGI (UO-31 renal): > 10 µM

NC(=O)c1sc(-n2cnc3ccc(C(F)(F)F)cc32)cc1OCc1ccccc1Br
GI50 (786-0 renal): 5.31 µM
TGI (786-0 renal): > 25 µM
GI50 (K-562 leukemia): 1.06 µM
TGI (K-562 leukemia): > 25 µM
GI50 (HCT-15 colon): 1.42 µM
TGI (HCT-15 colon): > 25 µM
GI50 (T-47D breast): 2.59 µM
TGI (T-47D breast): > 20.3 µM
GI50 (OVCAR-4 ovarian): 3.21 µM
TGI (OVCAR-4 ovarian): > 25 µM
GI50 (NCI-H23 lung): 1.23 µM
TGI (NCI-H23 lung): > 25 µM
GI50 (KM12 colon): 0.723 µM
TGI (KM12 colon): 2.87 µM
GI50 (SW-620 colon): 0.749 µM
TGI (SW-620 colon): > 25 µM
GI50 (SNB-75 CNS): 6.11 µM
TGI (SNB-75 CNS): > 25 µM
GI50 (UO-31 renal): 5.48 µM
TGI (UO-31 renal): > 25 µM

CCOC(=O)Cn1c(-c2nonc2NC(=O)c2ccccc2F)nc2ccccc21
GI50 (786-0 renal): 2.58 µM
TGI (786-0 renal): > 100 µM
GI50 (K-562 leukemia): 0.505 µM
TGI (K-562 leukemia): > 100 µM
GI50 (HCT-15 colon): 0.109 µM
TGI (HCT-15 colon): > 100 µM
GI50 (T-47D breast): 44.1 µM
TGI (T-47D breast): > 100 µM
GI50 (OVCAR-4 ovarian): 11.8 µM
TGI (OVCAR-4 ovarian): > 100 µM
GI50 (NCI-H23 lung): > 70.1 µM
TGI (NCI-H23 lung): > 100 µM
GI50 (KM12 colon): 1.93 µM
TGI (KM12 colon): > 100 µM
GI50 (SW-620 colon): 1.4 µM
TGI (SW-620 colon): > 100 µM
GI50 (SNB-75 CNS): 4.29 µM
TGI (SNB-75 CNS): 46 µM
GI50 (UO-31 renal): 28.1 µM
TGI (UO-31 renal): > 100 µM

Cc1ccc2nc3c(n2c1)C(=O)C(=O)c1ccccc1-3
GI50 (786-0 renal): 0.527 µM
TGI (786-0 renal): 1.15 µM
GI50 (K-562 leukemia): 0.0612 µM
TGI (K-562 leukemia): 0.286 µM
GI50 (HCT-15 colon): 0.17 µM
TGI (HCT-15 colon): 0.416 µM
GI50 (T-47D breast): 0.389 µM
TGI (T-47D breast): 1.74 µM
GI50 (OVCAR-4 ovarian): 0.21 µM
TGI (OVCAR-4 ovarian): 0.537 µM
GI50 (NCI-H23 lung): 0.217 µM
TGI (NCI-H23 lung): 0.576 µM
GI50 (KM12 colon): 0.574 µM
TGI (KM12 colon): 8.28 µM
GI50 (SW-620 colon): 0.198 µM
TGI (SW-620 colon): 0.411 µM
GI50 (SNB-75 CNS): 0.266 µM
TGI (SNB-75 CNS): 0.618 µM
GI50 (UO-31 renal): 0.194 µM
TGI (UO-31 renal): 1 µM

CCCCCCCCCCC[C@@H](C[C@H]1OC(=O)[C@H]1CCCCCC)OC(=O)[C@@H](CC(C)C)NC=O
GI50 (786-0 renal): 2.42 µM
TGI (786-0 renal): 18.7 µM
GI50 (K-562 leukemia): 4.36 µM
TGI (K-562 leukemia): 47.3 µM
GI50 (HCT-15 colon): 2.65 µM
TGI (HCT-15 colon): 46.8 µM
GI50 (T-47D breast): 13.3 µM
TGI (T-47D breast): > 100 µM
GI50 (OVCAR-4 ovarian): 3.6 µM
TGI (OVCAR-4 ovarian): 37.7 µM
GI50 (NCI-H23 lung): 7.19 µM
TGI (NCI-H23 lung): 67.4 µM
GI50 (KM12 colon): 3.92 µM
TGI (KM12 colon): 34.6 µM
GI50 (SW-620 colon): 4.92 µM
TGI (SW-620 colon): 94.1 µM
GI50 (SNB-75 CNS): 2.55 µM
TGI (SNB-75 CNS): 12.6 µM
GI50 (UO-31 renal): 2.52 µM
TGI (UO-31 renal): 59.6 µM

O=C(Nc1ccc(Oc2ccc(NC(=O)Nc3ccc([N+](=O)[O-])cc3)cc2)cc1)Nc1ccc([N+](=O)[O-])cc1
GI50 (786-0 renal): 3.15 µM
TGI (786-0 renal): > 36.2 µM
GI50 (K-562 leukemia): 0.826 µM
GI50 (HCT-15 colon): 1.91 µM
TGI (HCT-15 colon): 13.7 µM
GI50 (T-47D breast): 0.944 µM
TGI (T-47D breast): 6.74 µM
GI50 (OVCAR-4 ovarian): 2.07 µM
TGI (OVCAR-4 ovarian): > 100 µM
GI50 (NCI-H23 lung): 1.23 µM
TGI (NCI-H23 lung): 30.8 µM
GI50 (KM12 colon): 1.53 µM
TGI (KM12 colon): > 29.7 µM
GI50 (SW-620 colon): 2.51 µM
TGI (SW-620 colon): > 56.3 µM
GI50 (SNB-75 CNS): 2.78 µM
TGI (SNB-75 CNS): > 100 µM
GI50 (UO-31 renal): 0.516 µM
TGI (UO-31 renal): > 26.4 µM
